The values that follow come from PMC8296985, “A Covalent Calmodulin Inhibitor as a Tool to Study Cellular Mechanisms of K-Ras-Driven Stemness” (Frontiers in Cell and Developmental Biology, 2021).

Where two headings read alike, the source gives them in different places.

One experiment concerns the target CaM. On the set-up: method as in Manoharan et al., 2019. Particulars: ref Manoharan et al., 2019; cited from earlier work.
Another experiment addresses T1, K-RasG12V/CaM (Homo sapiens, UniProt P0DP23).
T1 construct: expressed in transfected cells; host or cells: HEK293-EBNA
As to the kind of experiment: Rluc8-K-RasG12V/GFP2-CaM interaction BRET in HEK293-EBNA cells. The format is cell-based. Particulars: for effect on Rluc8-K-RasG12V/GFP2-CaM BRET signal, single concentration: calmidazolium 20 μM, prostratin 20 μM, OphA 5 μM. The method, then:
(§1) BRET assays were essentially performed as described by others ([Lavoie et al., 2013]; [Bery et al., 2018]). About 100,00–150,000 HEK293-EBNA ([Meissner et al., 2001]) cells were seeded per well of a 12-well plate in 1 ml of DMEM containing 10% FBS and 2 mM L-glutamine and were grown for 24 h. Next day, Rluc8-tagged donor and GFP2-tagged acceptor constructs were transfected into cells using a jetPRIME transfection reagent (cat. no. 114-75, Polyplus). Each well was transfected with about 1 μg of plasmid DNA using 3 μl of the jetPRIME reagent. For BRET donor saturation titration experiments, the concentration of donor plasmid (25 ng) was kept constant, and the concentration of acceptor plasmid was increased from 0 to 500 ng for RasG12V BRET pairs and 0–1,000 ng for K-Ras/CaM BRET pairs. The empty pcDNA3.1(-) plasmid was used to top-up the total DNA load per transfection. After 24 h of transfection, cells were treated with compounds or vehicle control (DMSO 0.2% v/v in a growth medium) at the specified concentration for 24 h or the stipulated time period in case of the time-course experiments. The cells from one well of a 12-well plate were collected, washed, and re-plated in PBS (cat. no. 14190-094, Gibco, Thermo Fisher Scientific) on flat bottom, white 96-well plates (cat. no. 236108, Nunc, Thermo Fisher Scientific) as four technical replicates containing 90 μl of cell suspension per well. Then fluorescence intensity followed by BRET readings were carried out on a Clariostar (BMG Labtech) plate reader at 25°C. The fluorescence intensity (RFU) of GFP2 was measured with excitation at 405 ± 10 nm and emission 515 ± 10 nm; it is proportional to the acceptor concentration [acceptor]. BRET readings were taken well by well by adding 10 μl of 100 μM coelenterazine 400a (cat. no. C-320, GoldBio), the Rluc8 substrate to each well (final concentration of 10 μM) using the injector present in the plate reader. Luminescence emission intensities were simultaneously recorded at 410 ± 40 nm (RLU, proportional to [donor]) and 515 ± 15 nm (BRET signal).
(§2) The raw BRET ratio was calculated as the BRET signal measured at 515 nm divided by the emission signal measured at 410 nm (RLU). The BRET ratio was obtained by subtracting the raw BRET ratio by a background BRET signal measured for cells expressing only the donor ([Bacart et al., 2008]) as indicated in the formula below:
(§3) For BRET donor saturation titration experiments, the BRET ratio was plotted against the [acceptor]/[donor] ratio. Technical repeat data points were averaged, and data points from all biological repeats were collected into one graph for subsequent fitting. The BRET ratio vs. relative expression data were fitted using a binding saturation equation in the Prism (GraphPad) software to obtain BRETmax and BRET50 using the equation y=BRETmax×x/BRET50+x , where x is the relative expression and y is the BRET ratio. BRETmax represents the maximum saturation BRET signal and depends on the structural parameters (distance, orientation) of the BRET complex. BRET50 corresponds to the ratio of the acceptor construct over the donor construct required to attain 50% of the maximum BRET signal and is a measure of the effective relative affinity between the interacting BRET pair ([Marullo and Bouvier, 2007]).

The subject of a further experiment is K-RasG12V. As to the kind of experiment: K-RasG12V nanoclustering-BRET assay in HEK293-EBNA cells. The format is cell-based. Particulars: 24 h; calmidazolium 20 μM, OphA 2.5 μM, prostratin 10 μM, mevastatin 10 μM, benzazulenones 20 μM. How it is done: as §1, §2, §3
When applying the DSS analysis to nanoclustering-BRET data, we used mevastatin (10 μM) to obtain the asymptote parameter (a) for the maximal inhibition effect, as it prevents the prenylation of Ras proteins, their plasma membrane trafficking, and therefore nanoclustering. Otherwise, normalized BRET ratio data were converted to % inhibition and then subsequently uploaded onto the Breeze site (see text footnote 1).

A further experiment deals with HeLa cells. The experiment can be described thus: Centrosome number / multipolar phenotype in synchronized HeLa cells expressing mCherry-CaM. The format is cell-based. Particulars: 2 h; calmidazolium 20 μM, 1 50 μM, with MG132 10 μM. How it is done:
To evaluate the effect of compounds on centrosome numbers during mitosis, HeLa cells were seeded in 6-well plates onto sterile coverslips and cotransfected with 0.5 μg of pmCherry-CaM and 1.5 μg pEGFP-Centrin1 plasmids using 4 μl of jetPRIME. Twenty-four hours after the transfection, cells were synchronized with 60 ng/ml of nocodazole for 16 h. After the removal of nocodazole, the cells were treated with the […] MG132 (10 μM) to block the cells in metaphase and either calmidazolium (20 μM), 1 (50 μM), or DMSO (0.5%) for 2 h. Cells were then fixed with 4% paraformaldehyde in PBS for 10 min at ambient temperature. After washing with PBS-Tween 0.05%, DNA was stained with a 1 μg/ml solution of DAPI diluted in PBS for 10 min. Coverslips were mounted on glass slides using Vectashield, and images were captured on a spinning disk confocal microscope. Images were analyzed with the ImageJ software, and the number of transfected mitotic cells with multipolar and normal bipolar phenotypes was counted (between 35 and 70 cells per test condition). The percentage multipolar vs. bipolar cells was computed to generate the plot using the Prism software.

The test system of experiment [1] is NCI-H358, MIA PaCa-2, MDA-MB-231 and A375 3D spheroids. As to the kind of experiment: 3D spheroid growth benchmarking, DSS3, alamarBlue. The format is cell-based. The settings on record: spheroids grown 72 h then treated 72 h. The method, then: (§4) 3D spheroid formation assays were performed in 96-well low-attachment, suspension culture plates (cat. no. 655185, Cellstar, Greiner Bio-One) under serum-free condition. About 1,000 (MDA-MB-231, NCI-H358, and MIA PaCa-2) or 2,500 (Hs 578T) cells per well were seeded in 50 μl of either an RPMI medium (cat. no. 52400-025, Gibco, Thermo Fisher Scientific) (MDA-MB-231, A375, and NCI-H358) or DMEM (cat. no. 41965-039, Gibco, Thermo Fisher Scientific) (Hs 578T and MIA PaCa-2), containing 0.5% MethoCult (cat. no. SF H4636, Stemcell technologies), 1x B27 (cat. no. 17504044, Gibco, Thermo Fisher Scientific), 25 ng/ml EGF (cat. no. E9644, Sigma-Aldrich), and 25 ng/ml FGF (cat. no. RP-8628, Thermo Fisher Scientific). Cells were cultured for 3 days and then treated with compounds or vehicle control (DMSO 0.1% v/v in growth medium) for another 3 days. The cells were supplemented with a fresh growth medium on the third day together with the drug treatment. For knockdown experiments, cells were seeded in 12-well plates and treated with either 50 nM scrambled siRNA (cat. no. 1022076, QIAGEN) or indicated concentrations of siRNAs. Next day, cells were collected by trypsinization and re-plated into 96-well plates for 3D spheroid suspension culture.
(§5) Spheroid formation efficiency was analyzed by an alamarBlue assay reagent (cat. no. DAL1100, Thermo Fisher Scientific). A 10% final volume of the alamarBlue reagent was added to each well of the plate and incubated for 4 h at 37°C. Then the fluorescence intensity was measured using the FLUOstar OPTIMA plate reader (BMG Labtech, Germany) with an excitation wavelength of 560 ± 5 nm and an emission wavelength of 590 ± 5 nm.
(§6) To quantitatively profile the drug sensitivity with a more robust parameter than the IC50 or EC50 values, the drug sensitivity score (DSS) analysis was employed. DSS values are essentially normalized area under the curve (AUC) measures of dose-response inhibition data ([Yadav et al., 2014]). Drug response data files (in Excel) ready for online analysis were prepared according to the example file obtained from the DSS pipeline website, called Breeze^1 ([Potdar et al., 2020]). Either raw fluorescence intensity measurements or normalized % inhibition data (for BRET assay analysis) were uploaded.
(§7) DSS3 was employed to emphasize drugs that obtain their response area over a relatively wide dose window, as compared to drugs that show increased response only at the higher end of the concentration range. After logistic fitting of the dose-response inhibition data, the area under the curve (AUC) was determined as the exact solution. A 10% minimal activity threshold (t) was set. The maximum (Cmax) and minimum (Cmin) concentrations were used for screening of the inhibitors, with Cmax = x2 and x1 concentration with minimal activity t.
On the technique in general: Resazurin is reduced to fluorescent resorufin, in cell work by metabolically active cells.

In another experiment the test system is MDA-MB-231. The experiment can be described thus: 3D spheroid (tumorosphere) formation assay, low attachment, serum-free, alamarBlue. The format is cell-based. Particulars: for IC50: Homo sapiens. How it is done:
as §4, §5, §6, §7

The test system of a further experiment is Hs 578T. The experiment is described as above. Format: cell-based. Particulars: Homo sapiens. The method, then: as §4, §5, §6, §7
The next experiment has as its target calmodulin (CaM) (Bos taurus, UniProt P62157). The experiment can be described thus: Fluorescence polarization assay, displacement of F-PMCA peptide from CaM. For orientation: In fluorescence polarisation assays a small probe gives low polarisation when free and higher when bound to something large.
The target of experiment [2] is T2, mutCaM (CaM with K75Q, K77Q, and K148Q mutations) (Homo sapiens, UniProt P0DP23, K76Q/K78Q).
T2 construct: made in house; host or cells: E. coli BL21 Star (DE3)pLysS
As to the kind of experiment: Fluorescence polarization assay with F-CaMKII peptide and His-mutCaM. Format: binding. Particulars: 50 nM His-mutCaM, 5 nM F-CaMKII, compared to wt CaM. How it is done:
Our numbering of CaM follows ([Kong Au and Chow Leung, 1998]) with Ala being the first amino acid in human CaM, as the N-terminal methionine of CaM is removed in most organisms ([Halling et al., 2016]). […] At A600 of 0.6–0.8, the culture was induced with 0.5 mM of isopropyl β-D-thiogalactopyranoside and expressed for 16 h at 25°C. Cells were collected by centrifugation and incubated on ice for 30 min. The cell suspension was sonicated in a lysis buffer (20 mM HEPES, pH 7.6, 150 mM NaCl, 5 mM MgCl2, 0.5 mg/ml lysozyme, and DNase I). The lysates were clarified by centrifugation at 18,000 g for 30 min at 4°C. The soluble fractions were subjected to protein purification.

Experimental for calmodulin (CaM): Compounds were threefold-diluted in an assay buffer (20 mM Tris Cl pH 7.5, 50 mM NaCl, 1 mM CaCl2, and 0.005% Tween 20), and a complex of 100 nM CaM and 10 nM F-PMCA peptide was added. […] Then the plate was incubated overnight at 4°C, and the next day, final readings were taken after a total of 24 h incubation. The fluorescence anisotropy was calculated and plotted against the logarithm of the compound concentration and fit to the log inhibitor vs. response–variable slope (four parameters) equation in Prism (GraphPad).
The potency and selectivity of a covalent inhibitor are governed by two parameters, namely, Ki, the dissociation constant of the initial non-covalent complex, and k2, the rate of the subsequent covalent bond-forming reaction as given in the chemical equation
E and I denote a protein target and its covalent inhibitor, respectively. E ⋅ I is the initial non-covalent complex, and E – I is the final covalent complex. […] This was repeated for several inhibitor concentrations. Then, kobs was plotted against the concentration of the inhibitor, and the data were fit to a hyperbolic equation kobs=k2×[I]/Ki+[I] to obtain Ki and k2. The ratio of k2/Ki represents the second-order rate constant of the reaction of the covalent inhibitor with the target.

By Kd is commonly meant the equilibrium constant for the complex coming apart. With `Clc1ccc(C(c2ccc(Cl)cc2)n2cc[n+](CC(OCc3ccc(Cl)cc3Cl)c3ccc(Cl)cc3Cl)c2)cc1` (stereo not drawn) [calmidazolium], the Kd on CaM is 0.0135 µM. On K-RasG12V/CaM, the “effect on Rluc8-K-RasG12V/GFP2-CaM BRET signal, single concentration” value is recorded as “significantly reduced the BRET signal”. In the experiment on K-RasG12V, the “K-Ras selective reduction of nanoclustering-BRET (K-Ras vs H-Ras)” value is 1.5 fold. In addition, in the experiment on HeLa cells, the “multipolar phenotype (multiple mCherry-CaM-positive centrosomes)” value is on record as “increased fraction of multipolar cells”.

In the case of `CC(=O)O[C@@]12C[C@@H](C)[C@@]3(O)[C@@H](C=C(CO)C[C@]4(O)C(=O)C(C)=C[C@@H]34)[C@@H]1C2(C)C` [prostratin], on K-RasG12V/CaM, the “effect on Rluc8-K-RasG12V/GFP2-CaM BRET signal, single concentration” value is “did not have an effect”. In experiment [1], the “effect on 3D spheroid growth” value is given as “almost no effect on cell growth”. For the same compound, the “K-Ras selective reduction of nanoclustering-BRET (K-Ras vs H-Ras)” value in the experiment with K-RasG12V is listed as 1.5 fold.

One may read the Ki as a dissociation constant, usually derived from enzyme kinetics or from competition with a known ligand. In the case of `Cc1c(N2CCCCC2)c2c(=O)c(C(F)(F)F)cc3ccc(C(C)C)cc1c32` [Compound 8], the IC50 was 32.4 µM in the experiment on MDA-MB-231 (72 h, MDA-MB-231 (K-RasG13D) 3D tumorosphere, 3 days treatment, read-out: IC50); 31.6 µM in the experiment with MDA-MB-231 (MDA-MB-231 3D tumorosphere, log scale, read-out: logIC50 ± SD (converted)); 10.6 µM in the experiment with Hs 578T (72 h, Hs 578T (H-RasG12D) 3D tumorosphere, 3 days treatment, read-out: IC50); 10.5 µM with Hs 578T (Hs 578T 3D tumorosphere, log scale, read-out: logIC50 ± SD (converted)); 70 ± 11 µM at K-RasG12V/CaM (24-h exposure, A/D plasmid ratio 9/1, read-out: IC50 of Rluc8-K-RasG12V/GFP2-CaM BRET signal). In the experiment on MDA-MB-231 (MDA-MB-231 vs Hs 578T 3D spheroid formation, 0.6–40 μM, numbers above bars Fig. 1A,B), the “KRAS/HRAS mutant cell line DSS3 ratio” value came to 1.5. The Kd on calmodulin (CaM) came out at 3.1 µM. Besides, the inhibitory constant (Ki) at calmodulin (CaM) came to 39 µM. Besides, on calmodulin (CaM) (read-out: k2/Ki second-order rate constant), the kinact/KI was 2.5 M⁻¹ s⁻¹. The “binding to mutCaM over time” value in [2] was “same binding affinity for wt CaM and mutCaM over time”.

As for `CCCS(=O)(=O)Nc1ccc(F)c(C(=O)c2c[nH]c3ncc(-c4ccc(Cl)cc4)cc23)c1F` [vemurafenib], the “effect on 3D spheroid growth” value in experiment [1] was “selectively and potently abolished the growth”.
